Some results are limits rather than exact numbers.

The test concerns the target T1, human RORγt (Ligand Binding Domain) (Homo sapiens, UniProt P51449).
T1 construct: purchased Crelux (Planegg, Germany) batch no PC5032-1
T1 sequence (P51449 269-508 limits assumed): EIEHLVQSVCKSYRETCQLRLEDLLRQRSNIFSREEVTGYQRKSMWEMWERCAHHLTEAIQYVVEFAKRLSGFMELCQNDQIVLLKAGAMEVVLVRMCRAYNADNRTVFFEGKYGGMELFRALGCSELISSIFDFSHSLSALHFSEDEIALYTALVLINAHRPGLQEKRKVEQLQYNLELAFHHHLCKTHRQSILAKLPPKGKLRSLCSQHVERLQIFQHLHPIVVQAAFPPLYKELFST
Nature of the test: Fluorescence Polarization (FP) Assay. Particulars: Fluorescence Polarization (FP) Assay; values given as upper bounds of activity ranges; read-out: FP activity range. In outline: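 Binding to the ligand pocket followed by fluorescence polarization with a TAMRA-tagged RORγt ligand probe of 910 g/mole. Negative control wells received DMSO only.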
(In general: Fluorescence polarisation rises when a labelled molecule tumbles more slowly, as on binding a larger partner.)
On to `NC(=O)C1(CNc2ncnc(N3CCOC[C@@H]3c3ccc(C(F)(F)F)cc3)c2F)CCCC1` [Example 249, 1-[[[5-fluoro-6-[(3S)-3-[4-(trifluoromethyl)phenyl]morpholin-4-yl]pyrimidin-4-yl]amino]methyl] cyclopentanecarboxamide], for which the IC50 is < 10 µM.

Regarding `CN(C)C(=O)C1(CNc2ncnc(N3CCOC[C@@H]3c3ccc(C(F)(F)F)cc3)c2F)CCCC1` [Example 250, 1-[[[5-fluoro-6-[(3S)-3-[4-(trifluoromethyl)phenyl]morpholin-4-yl]pyrimidin-4-yl]amino]methyl]-N,N-dimethyl-cyclopentanecarboxamide], the IC50 was < 10 µM.

Take `CS(=O)(=O)NC1CCCC1CNc1ncnc(N2CCOC[C@@H]2c2ccc(C(F)(F)F)cc2)c1F` (stereo partly drawn) [Example 251, N-[2-[[[5-fluoro-6-[(3S)-3-[4-(trifluoromethyl)phenyl]morpholin-4-yl]pyrimidin-4-yl]amino]methyl]cyclopentyl] methanesulfonamide]: the IC50 was < 10 µM.

As for `NCCNC(=O)C1(CNc2ncnc(N3CCOC[C@@H]3c3ccc(C(F)(F)F)cc3)c2F)CCOCC1` [Example 256, N-(2-aminoethyl)-4-[[[5-fluoro-6-[(3S)-3-[4-(trifluoromethyl)phenyl]morpholin-4-yl]pyrimidin-4-yl]amino]methyl]tetrahydropyran-4-carboxamide], the IC50 is < 10 µM.

In the case of `O=C(O)C1(CNc2ncnc(N3CCOCC3c3ccc(C(F)(F)F)cc3)c2F)CCOCC1` (stereo not drawn) [Example 268, 4-[[[5-fluoro-6-[3-[4-(trifluoromethyl)phenyl]morpholin-4-yl]pyrimidin-4-yl]amino]methyl]tetrahydropyran-4-carboxylic acid], the IC50 was < 10 µM.

For `CS(=O)(=O)c1ccc(CNc2ncnc(N3CCOC[C@@H]3c3ccc(C(F)(F)F)cc3)c2F)cn1` [Example 293, 5-fluoro-N-[(6-methylsulfonyl-3-pyridyl)methyl]-6-[(3S)-3-[4-(trifluoromethyl)phenyl]morpholin-4-yl]pyrimidin-4-amine], the IC50 was < 1 µM.

`CC(C)(CCS(C)(=O)=O)CNc1ncnc(N2CCOC[C@@H]2c2ccc(C(F)(F)F)cc2)c1F` [Example 294, N-(2,2-dimethyl-4-methylsulfonyl-butyl)-5-fluoro-6-[(3S)-3-[4-(trifluoromethyl)phenyl]morpholin-4-yl]pyrimidin-4-amine]: the IC50 is < 10 µM.

Turning to `OCC1(CNc2ncnc(N3CCOC[C@@H]3c3ccc(C(F)(F)F)cc3)c2F)CC1` [Example 296, [1-[[[5-fluoro-6-[(3S)-3-[4-(trifluoromethyl)phenyl]morpholin-4-yl]pyrimidin-4-yl]amino]methyl]cyclopropyl] methanol], the IC50 was < 10 µM.

As to `CS(=O)(=O)NC1CCN(c2ncnc(N3CCOC[C@@H]3c3ccc(C(F)(F)F)cc3)c2F)CC1` [Example 297, N-[1-[5-fluoro-6-[(3 S)-3-[4-(trifluoromethyl)phenyl]morpholin-4-yl]pyrimidin-4-yl]-4-piperidyl]methanesulfonamide], the IC50 is < 10 µM.

In the case of `CS(=O)(=O)N1CCOC(CNc2ncnc(N3CCOC[C@@H]3c3ccc(C(F)(F)F)cc3)c2F)C1` (stereo partly drawn) [Example 309, 5-fluoro-N-[(4-methylsulfonylmorpholin-2-yl)methyl]-6-[(3S)-3-[4-(trifluoromethyl)phenyl]morpholin-4-yl]pyrimidin-4-amine], the IC50 is < 2 µM.

As for `NC(=O)Cc1ccc(CNc2ncnc(N3CCCC3c3nc4ccccc4s3)c2F)cc1` (stereo not drawn) [Example 310, 2-[4-[[[6-[2-(1,3-benzothiazol-2-yl)pyrrolidin-1-yl]-5-fluoro-pyrimidin-4-yl]amino]methyl]phenyl]acetamide], the IC50 was < 0.5 µM.

As to `NC(=O)Cc1ccc(CNc2ncnc(N3CCCC3c3cccc4ccccc34)c2F)cc1` (stereo not drawn) [Example 311, 2-[4-[[[5-fluoro-6-[2-(1-naphthyl)pyrrolidin-1-yl]pyrimidin-4-yl]amino]methyl]phenyl] acetamide], the IC50 is < 0.5 µM.

Source of the values: patent US10689383B2, “Optionally fused heterocyclyl-substituted derivatives of pyrimidine useful for the treatment of inflammatory, metabolic, oncologic and autoimmune diseases” (NUEVOLUTION A/S, priority 2014, dated 2020).
